Experimental data from US20060030017A1, “Three-dimensional structure of c-Abl” (priority 2004, published 2006).

Molecular target: T1, c-Abl protein tyrosine kinase (Homo sapiens, UniProt P00519)
T1 construct: c-Abl Kinase Fragment, Amino Acids 218-500; Factor Xa cleavage site (IEGR) (N); made in house; host or cells: baculovirus / Sf9 insect cells
T1 sequence (P00519 with tags, fused parts or gaps): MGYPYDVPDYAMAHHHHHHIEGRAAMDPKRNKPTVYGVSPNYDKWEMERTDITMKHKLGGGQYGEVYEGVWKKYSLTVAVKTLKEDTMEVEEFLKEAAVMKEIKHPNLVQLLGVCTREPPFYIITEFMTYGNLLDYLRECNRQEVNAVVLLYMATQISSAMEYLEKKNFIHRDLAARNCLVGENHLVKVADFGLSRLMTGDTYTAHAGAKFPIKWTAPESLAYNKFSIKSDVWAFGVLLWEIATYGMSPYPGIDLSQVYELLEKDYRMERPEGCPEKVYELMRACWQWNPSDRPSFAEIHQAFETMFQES
Experiment: c-Abl protein tyrosine kinase filter binding assay ([32P]-ATP, Poly-AEKY substrate)
Assay type: biochemical
Settings: hit from HTD; in vitro confirmation test described, IC50 not given
Procedure: The top scoring poses are evaluated interactively using molecular graphics to select those compounds which formed favorable intermolecular hydrogen bonds and van der Waals interactions with the c-Abl kinase receptor model, as well as to eliminate compounds containing cis-amides and non-aromatic tautomers. Compounds are also selected for desirable drug-like properties, such as size, lipophilicity and chemical stability. The resulting “hit” compounds are confirmed as leads for drug optimization, by their in vitro evaluation in a test for activity against c-Abl protein tyrosine kinase. The test is conducted as a filter binding assay as follows: The His-tagged kinase domain of c-Abl is cloned and expressed in the baculovirus/Sf9 system. See Bhat et al., J Biol Chem, Vol. 27, pp. 16170-16175 (1997). […] Membranes are counted after drying at ambient temperature, mounting in Packard TopCount 96-well frame, and addition of 10 μL/well of Microscint™ (Packard). The activity of the compounds is quantified as IC50 and IC90 values, as determined from their dose response curves by graphical extrapolation. Thus, IC50 values are determined by linear regression analysis of the percentages for the inhibition of each compound in at least four concentrations (as a rule 0.01, 0.1, 1.0 and […]).

COc1cccc(-n2cc(-c3cccc(OCCNCCO)c3)c3ncnc(N)c32)c1 [2-[[2-[3-[4-amino-5-(3-methoxyphenyl)-5H-pyrrolo[3,2-d]pyrimidin-7-yl]phenoxy]ethyl]amino]-ethanol]
inhibition of c-Abl kinase (hit identified by virtual screening): specific inhibitors of c-Abl kinase
